Results as given in patent US9440953B2, “Substituted amino triazoles useful as acidic mammalian chitinase inhibitors” (OncoArendi Therapeutics Sp z o.o., priority 2014, dated 2016).

Target: recombinant human AMCase (Homo sapiens, UniProt Q9BZP6)
Assay: Human AMCase Activity Assay
Type: biochemical
Conditions: recombinant hAMCase, 4-methylumbelliferyl B-D-N,N′-diacetylchitobioside substrate, citrate buffer pH 5.2, 37° C., 60 minutes
Description: Human AMCase Activity Assay
The assay was run in the 96-well plate format, each reaction in the total volume of 100 μL. 4-Methylumbelliferyl B-D-N,N′-diacetylchitobioside hydrate was used as a substrate for the enzyme. Upon hydrolysis by AMCase, the substrate releases 4-methylumbelliferyl (4MU) that, when ionized in basic pH, emits fluorescence at 460 nm.
Briefly, 40 μL of a substrate was added to each well, followed by 10 μL of compound dilution and 50 μL of hAMCase recombinant enzyme solution. […] The fluorescence of the reaction product was measured in Perkin Elmer Envision fluorescent plate reader at an excitation wavelength of 355 nm.

recombinant human AMCase, sequence (Q9BZP6 22-476): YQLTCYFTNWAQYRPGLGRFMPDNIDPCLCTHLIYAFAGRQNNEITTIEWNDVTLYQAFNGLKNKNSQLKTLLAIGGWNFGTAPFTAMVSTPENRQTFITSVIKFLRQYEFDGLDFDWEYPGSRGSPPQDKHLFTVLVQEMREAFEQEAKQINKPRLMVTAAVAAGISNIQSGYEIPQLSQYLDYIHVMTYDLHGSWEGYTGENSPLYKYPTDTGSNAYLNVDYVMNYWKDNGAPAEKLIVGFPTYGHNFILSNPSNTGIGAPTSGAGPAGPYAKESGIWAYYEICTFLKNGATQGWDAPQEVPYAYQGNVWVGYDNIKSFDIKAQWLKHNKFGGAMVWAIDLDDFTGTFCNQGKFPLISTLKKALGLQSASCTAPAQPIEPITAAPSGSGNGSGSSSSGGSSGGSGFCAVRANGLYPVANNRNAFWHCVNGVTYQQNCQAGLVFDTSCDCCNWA

Compound `Cc1ccc(S(=O)(=O)NCCN(CCc2ccc(Br)cc2)C2CCN(c3nc(N)n[nH]3)CC2)cc1` [Example 42, N-(2-((1-(3-amino-1H-1,2,4-triazol-5-yl)piperidin-4-yl)(4-bromophenethyl)-amino)ethyl)-4-methylbenzenesulfonamide] has an IC50 of 1 to 10 nM.

With `Nc1n[nH]c(N2CCC(N(CCc3ccc(Cl)cc3)Cc3ccc(Cl)c(C(=O)O)c3)CC2)n1` [Example 7, 5-(((1-(3-amino-1H-1,2,4-triazol-5-yl)piperidin-4-yl)(4-chlorophenethyl)amino)-methyl)-2-chlorobenzoic acid] the IC50 was 1 to 10 nM.

Work on `Nc1n[nH]c(N2CCC(N(CCc3ccc(Cl)cc3)Cc3ccccc3C(=O)O)CC2)n1` [Example 2, 2-(((1-(3-amino-1H-1,2,4-triazol-5-yl)piperidin-4-yl)(4-chlorophenethyl)amino-)methyl)benzoic acid] yielded an IC50 of 100 to 1000 nM.
